Data: patent publication US20080269214A1, “Pyrrole Derivatives as Dna Gyrase and Topoisomerase Inhibitors” (ASTRAZENECA AB, priority 2005, published 2008)
Values after ≈ are worked out from the molar mass of the structure shown.

What was measured:
Assay in all cases: Bacterial susceptibility testing in liquid media (MIC)
SPN548 = type: cell-based, Streptococcus pneumoniae; conditions: strain SPN548; no unit printed in table (b320 text uses μg/ml); growth reduced by 80% or more, 24 hrs
Description: (§1) Compounds were tested for antimicrobial activity by susceptibility testing in liquid media. Compounds were dissolved in dimethylsulfoxide and tested in 10 doubling dilutions in the susceptibility assays. The organisms used in the assay were grown overnight on suitable agar media and then suspended in a liquid medium appropriate for the growth of the organism. The suspension was a 0.5 McFarland and a further 1 in 10 dilution was made into the same liquid medium to prepare the final organism suspension in 100 µL. Plates were incubated under appropriate conditions at 37 degrees C. for 24 hrs prior to reading. The Minimum Inhibitory Concentration was determined as the lowest drug concentration able to reduce growth by 80% or more.

HIN446 = type: cell-based; conditions: strain HIN446; no unit printed in table (b320 text uses μg/ml); growth reduced by 80% or more, 24 hrs
Description: as §1

SAU516 = type: cell-based; conditions: strain SAU516; no unit printed in table (b320 text uses μg/ml); growth reduced by 80% or more, 24 hrs
Description: as §1

Streptococcus pneumoniae = type: cell-based; conditions: lowest concentration reducing growth by 80% or more, 37 degrees C., 24 hrs, read-out: MIC against Streptococcus pneumoniae
Description: as §1

MIC (Streptococcus pneumoniae) | SMILES | MIC SPN548 (SPN548) | MIC HIN446 (HIN446) | MIC SAU516 (SAU516)
– | Cc1[nH]c(C(=O)Nc2ccc(-c3ccc(C(=O)O)o3)cc2)c(Cl)c1Cl [Example 36, 5-(4-{[(3,4-Dichloro-5-methyl-1H-pyrrol-2-yl)carbonyl]amino}phenyl)-2-furoic acid] | 0.25 | 1 | 2
– | Cc1[nH]c(C(=O)Nc2ccc(-c3cncc(C(=O)O)c3)cc2)c(Cl)c1Cl [Example 23, 5-[4-[[(3,4-Dichloro-5-methyl-1H-pyrrol-2-yl)carbonyl]amino]phenyl]-3-pyridinecarboxylic acid] | 0.13 | 2 | 4
– | Cc1[nH]c(C(=O)Nc2ccc(-c3cnc(Cl)c(C(=O)O)c3)cc2)c(Cl)c1Cl [Example 26, 2-Chloro-5-(4-{[(3,4-dichloro-5-methyl-1H-pyrrol-2-yl)carbonyl]amino}phenyl)nicotinic acid] | 1 | 8 | 32
1 µg/mL (≈ 2.38 µM) | COc1ncc(-c2ccc(NC(=O)c3[nH]c(C)c(Cl)c3Cl)cc2)cc1C(=O)O [Example 30, 5-(4-{[(3,4-Dichloro-5-methyl-1H-pyrrol-2-yl)carbonyl]amino}phenyl)-2-methoxynicotinic acid] | – | – | –
– | Cc1[nH]c(C(=O)Nc2ccc(-c3cc(C(=O)O)ccn3)cc2)c(Cl)c1Cl [Example 27, 2-(4-{[(3,4-Dichloro-5-methyl-1H-pyrrol-2-yl)carbonyl]amino}phenyl)isonicotinic acid] | 0.13 | 2 | 2
– | CNc1ncc(-c2ccc(NC(=O)c3[nH]c(C)c(Cl)c3Cl)cc2)cc1C(=O)O [Example 25, 5-(4-{[(3,4-Dichloro-5-methyl-1H-pyrrol-2-yl)carbonyl]amino}phenyl)-2-(methylamino)nicotinic acid] | 1 | 4 | 2
